# ChEMBL document CHEMBL4665869, “New thiazolopyrimidine as anticancer agents: Synthesis, biological evaluation, DNA binding, molecular modeling and ADMET study” (Bioorg Med Chem Lett, 2020)
# Calls of active or inactive are those of the source. No cut-off for these calls is given here.
# Legend:
# Format in all cases: functional
# T47D = test: Growth inhibition of human T47D cells at 10 uM relative to control; conditions: read-out: GI
# MCF7 = test: Growth inhibition of human MCF7 cells at 10 uM relative to control
# CAKI-1 = test: Growth inhibition of human CAKI-1 cells at 10 uM relative to control
# SNB-19 = test: Growth inhibition of human SNB-19 cells at 10 uM relative to control; conditions: read-out: GI
# [1] = tested on: Panel NCI-60 (60 carcinoma cell lines); test: Growth inhibition of human NCI60 cells
# NCI-H322M = test: Growth inhibition of human NCI-H322M cells at 10 uM relative to control; conditions: read-out: GI
# A498 = test: Growth inhibition of human A498 cells at 10 uM relative to control
# Malme-3M = test: Growth inhibition of human Malme-3M cells at 10 uM relative to control
# NCI-H522 = test: Growth inhibition of human NCI-H522 cells at 10 uM relative to control
# K562 = test: Growth inhibition of human K562 cells at 10 uM relative to control; conditions: read-out: GI
# NCI-H226 = test: Growth inhibition of human NCI-H226 cells at 10 uM relative to control; conditions: read-out: GI
# SF-295 = test: Growth inhibition of human SF-295 cells at 10 uM relative to control
# OVCAR-5 = test: Growth inhibition of human OVCAR-5 cells at 10 uM relative to control
# [2] = Growth inhibition of human breast cancer cells; conditions: Breast cancer cell line
smiles,measurement,setting,value
COc1cc(/C=C/C2=CC(c3cc(OC)c(OC)c(OC)c3)N3C=C(C)SC3=N2)cc(OC)c1OC (stereo not drawn),inhibition of growth at 10 µM,T47D,92%
same,growth inhibition (GI),MCF7,Active
same,growth inhibition (GI),CAKI-1,Active
same,inhibition of growth at 10 µM,SNB-19,66.5%
same,GI50,[1],1.07 µM
same,LC50,[1],34.7 µM
same,TGI,[1],6.61 µM
same,inhibition of growth at 10 µM,NCI-H322M,86.4%
same,growth inhibition (GI),A498,Active
same,growth inhibition (GI),Malme-3M,Active
same,growth inhibition (GI),NCI-H522,Active
same,inhibition of growth at 10 µM,K562,97.8%
same,inhibition of growth at 10 µM,NCI-H226,97.3%
same,growth inhibition (GI),SF-295,Active
same,growth inhibition (GI),OVCAR-5,Active
same,GI50,[2],1.39 µM
same,TGI,[2],17.9 µM
same,CC50,[2]; read-out: LC50 (the source's name),68.7 µM
